Test results as given in ChEMBL document CHEMBL5543127, “Design, Synthesis, and Biological Evaluation of 2-Phenoxyalkylhydrazide Benzoxazole Derivatives as Quorum Sensing Inhibitors with Strong Antibiofilm Effect” (J Med Chem, 2024).
Values after ≈ are worked out from the molar mass of the structure shown. Active and inactive are the calls of the source. The rule behind the calls is not given here.

Experiments:
Pseudomonas aeruginosa [1] = assay: Anti-microbial activity against penicillin-susceptible Pseudomonas aeruginosa 27853 incubated for 20 hrs By CLSI based micro-dilution method; format: functional
Bacillus pumilus = assay: Anti-microbial activity against Bacillus pumilus CMCC63202 incubated for 20 hrs By CLSI based micro-dilution method; format: functional
[2] = Inhibition of quorum sensing system in Pseudomonas aeruginosa PAO1 at logarithmic growth period assessed as inhibition of pyocyanin production at 102.4 microg/ml incubated for 18 hrs by pyocyanin inhibition assay; settings: dose 102.4 µg/ml
Bacillus subtilis = assay: Anti-microbial activity against Bacillus subtilis ATCC9372 incubated for 20 hrs By CLSI based micro-dilution method; format: functional
Staphylococcus aureus [3] = assay: Anti-microbial activity against erythromycin-susceptible Staphylococcus aureus ATCC25923 incubated for 20 hrs By CLSI based micro-dilution method; format: functional
Staphylococcus aureus [4] = assay: Anti-microbial activity against methicillin-resistant Staphylococcus aureus ATCC43300 incubated for 20 hrs By CLSI based micro-dilution method; format: functional
Escherichia coli = assay: Anti-microbial activity against penicillin-susceptible Escherichia coli ATCC25922 incubated for 20 hrs By CLSI based micro-dilution method; format: functional
Pseudomonas aeruginosa [5] = assay: Anti-microbial activity against Pseudomonas aeruginosa PAO1 incubated for 20 hrs By CLSI based micro-dilution method; format: functional
Pseudomonas aeruginosa [6] = assay: Antibacterial activity against Pseudomonas aeruginosa 27853 at logarithmic growth phase assessed as growth inhibition at 153.6 microg/ml measured upto 25 hrs by growth curve assay; format: functional, organism-based; settings: dose 153.6 µg/ml
Pseudomonas aeruginosa [7] = assay: Antibacterial activity against Pseudomonas aeruginosa PAO1 at logarithmic growth phase assessed as growth inhibition at 153.6 microg/ml measured upto 25 hrs by growth curve assay; format: functional, organism-based; settings: dose 153.6 µg/ml
Pseudomonas aeruginosa [8] = assay: Inhibition of protease in logarithmic growth phase Pseudomonas aeruginosa PAO1 assessed as inhibition rate at 102.4 microg/ml measured after 32 hrs; settings: dose 102.4 µg/ml

| Structure (SMILES) | MIC (Pseudomonas aeruginosa [1]) [µg/mL] | MIC (Bacillus pumilus) [µg/mL] | inhibition [2] | MIC (Bacillus subtilis) [µg/mL] | MIC (Staphylococcus aureus [3]) [µg/mL] | MIC (Staphylococcus aureus [4]) [µg/mL] | MIC (Escherichia coli) [µg/mL] | MIC (Pseudomonas aeruginosa [5]) [µg/mL] | Activity (Pseudomonas aeruginosa [6]) | Activity (Pseudomonas aeruginosa [7]) | inhibition (Pseudomonas aeruginosa [8]) [%] |
| --- | --- | --- | --- | --- | --- | --- | --- | --- | --- | --- | --- |
| Cc1cccc2sc(NNC(=O)CCCCOc3ccc(Cl)cc3)nc12 | > 512 | 512 (≈ 1310 µM) | 42.2% | 512 (≈ 1310 µM) | > 512 | 512 (≈ 1310 µM) | > 512 | > 512 | – | – | – |
| O=C(COc1cccc(F)c1)NNc1nc2ccccc2o1 | 512 (≈ 1700 µM) | > 512 | inactive | 512 (≈ 1700 µM) | 512 (≈ 1700 µM) | > 512 | > 512 | 512 (≈ 1700 µM) | inactive | inactive | 10 |
| O=C(NNc1nc2ccccc2s1)c1ccc(F)cc1 | 512 (≈ 1780 µM) | > 512 | – | 512 (≈ 1780 µM) | > 512 | 256 (≈ 891 µM) | > 512 | > 512 | – | – | – |
| O=C(CCCCCOc1ccc(F)cc1)NNc1nc2ccccc2o1 | 512 (≈ 1430 µM) | > 512 | inactive | 512 (≈ 1430 µM) | 512 (≈ 1430 µM) | > 512 | > 512 | > 512 | – | – | – |
| Cn1c(=NNC(=O)CCCCOc2ccc(Cl)cc2)sc2ccccc21 | > 512 | 256 (≈ 657 µM) | Active | 512 (≈ 1310 µM) | 256 (≈ 657 µM) | – | > 512 | > 512 | – | – | – |
| COc1cccc(/C=N/Nc2nc3ccccc3o2)c1 | > 512 | 512 (≈ 1920 µM) | inactive | 512 (≈ 1920 µM) | 128 (≈ 479 µM) | > 512 | > 512 | > 512 | inactive | inactive | – |
| Cn1/c(=N/NC(=O)c2ccccc2F)sc2ccccc21 | > 512 | > 512 | – | > 512 | > 512 | > 512 | > 512 | > 512 | inactive | inactive | > 20 |
| Cc1ccc(C(=O)N/N=c2\sc3ccccc3n2C)cc1 | > 512 | > 512 | – | > 512 | > 512 | > 512 | > 512 | > 512 | – | – | – |
| CCCCCCCC(=O)N/N=c1\sc2ccccc2n1C | > 512 | > 512 | – | > 512 | > 512 | > 512 | > 512 | > 512 | – | – | > 20 |
| Brc1ccccc1/C=N/Nc1nc2ccccc2o1 | > 512 | > 512 | inactive | 512 (≈ 1620 µM) | 128 (≈ 405 µM) | 256 (≈ 810 µM) | > 512 | > 512 | – | – | – |
| CCCCCCCCC(=O)N/N=c1\sc2ccccc2n1C | > 512 | > 512 | Active | > 512 | > 512 | > 512 | > 512 | > 512 | – | – | – |
| CCCCCCCCCCCC(=O)N/N=c1\sc2ccccc2n1C | > 512 | > 512 | – | > 512 | > 512 | > 512 | > 512 | > 512 | inactive | inactive | > 20 |
| O=C(CCCCCOc1ccc(Cl)cc1)NNc1nc2ccccc2o1 | 512 (≈ 1370 µM) | 256 (≈ 685 µM) | inactive | 512 (≈ 1370 µM) | 256 (≈ 685 µM) | 256 (≈ 685 µM) | > 512 | > 512 | – | – | – |
| O=C(CCCCOc1ccc(F)cc1)NNc1nc2ccccc2s1 | > 512 | > 512 | Active | > 512 | > 512 | > 512 | > 512 | > 512 | inactive | inactive | – |
| COc1ccccc1/C=N/Nc1nc2ccccc2o1 | > 512 | > 512 | inactive | 512 (≈ 1920 µM) | 256 (≈ 958 µM) | > 512 | > 512 | > 512 | inactive | inactive | – |
| Clc1cccc(/C=N/Nc2nc3ccccc3o2)c1 | > 512 | 512 (≈ 1880 µM) | inactive | 512 (≈ 1880 µM) | 256 (≈ 942 µM) | > 512 | > 512 | > 512 | inactive | inactive | – |
| CCCCCCCCCC(=O)N/N=c1\sc2ccccc2n1C | > 512 | > 512 | Active | 512 (≈ 1540 µM) | 512 (≈ 1540 µM) | > 512 | > 512 | > 512 | – | – | – |
| Clc1ccc(/C=N/Nc2nc3ccccc3o2)cc1Cl | > 512 | > 512 | inactive | 512 (≈ 1670 µM) | 64 (≈ 209 µM) | 512 (≈ 1670 µM) | > 512 | > 512 | – | – | – |

| Structure (SMILES) | MIC (Pseudomonas aeruginosa [1]) [µg/mL] | MIC (Bacillus pumilus) [µg/mL] | inhibition [2] | MIC (Bacillus subtilis) [µg/mL] | MIC (Staphylococcus aureus [3]) [µg/mL] | MIC (Staphylococcus aureus [4]) [µg/mL] | MIC (Escherichia coli) [µg/mL] | MIC (Pseudomonas aeruginosa [5]) [µg/mL] | Activity (Pseudomonas aeruginosa [6]) | Activity (Pseudomonas aeruginosa [7]) | inhibition (Pseudomonas aeruginosa [8]) [%] |
| --- | --- | --- | --- | --- | --- | --- | --- | --- | --- | --- | --- |
| CCCCCCC(=O)N/N=c1\sc2ccccc2n1C | > 512 | > 512 | – | > 512 | > 512 | > 512 | > 512 | > 512 | – | – | – |
| COc1ccccc1C(=O)N/N=c1\sc2ccccc2n1C | > 512 | > 512 | – | > 512 | > 512 | > 512 | > 512 | > 512 | – | – | – |
| CCCCCC(=O)N/N=c1\sc2ccccc2n1C | > 512 | > 512 | – | > 512 | 256 (≈ 923 µM) | > 512 | > 512 | > 512 | – | – | – |
| Cn1c(=NNC(=O)CCCCOc2ccc(F)cc2)sc2ccccc21 | > 512 | 256 (≈ 685 µM) | Active | 512 (≈ 1370 µM) | – | – | > 512 | > 512 | – | – | – |
| O=C(CCCOc1cccc(F)c1)NNc1nc2ccccc2o1 | 512 (≈ 1550 µM) | > 512 | inactive | > 512 | > 512 | > 512 | > 512 | > 512 | – | – | 30 |
| O=C(NNc1nc2ccccc2s1)c1cccc(Cl)c1 | 512 (≈ 1690 µM) | 256 (≈ 843 µM) | – | 512 (≈ 1690 µM) | > 512 | 128 (≈ 421 µM) | > 512 | > 512 | – | – | – |
| O=C(CCCCCOc1cccc(F)c1)NNc1nc2ccccc2o1 | 512 (≈ 1430 µM) | > 512 | inactive | 512 (≈ 1430 µM) | 256 (≈ 716 µM) | > 512 | > 512 | > 512 | – | – | – |
| Cn1/c(=N/NC(=O)c2ccc(F)cc2)sc2ccccc21 | > 512 | > 512 | – | > 512 | > 512 | > 512 | > 512 | > 512 | inactive | inactive | > 20 |
| CCCCC(=O)N/N=c1\sc2ccccc2n1C | > 512 | > 512 | Active | > 512 | 512 (≈ 1940 µM) | > 512 | > 512 | > 512 | – | – | – |
| CC[C@H]1OC(=O)[C@H](C)[C@@H](O[C@H]2C[C@@](C)(OC)[C@@H](O)[C@H](C)O2)[C@H](C)[C@@H](O[C@@H]2O[C@H](C)C[C@H](N(C)C)[C@H]2O)[C@](C)(OC)C[C@@H](C)C(=O)[C@H](C)[C@@H](O)[C@]1(C)O [CLARITHROMYCIN] | 128 (≈ 171 µM) | 0.25 (≈ 0.334 µM) | – | 0.25 (≈ 0.334 µM) | 0.25 (≈ 0.334 µM) | 16 (≈ 21.4 µM) | 128 (≈ 171 µM) | 256 (≈ 342 µM) | – | – | – |
| Cc1cccc(C(=O)N/N=c2\sc3ccccc3n2C)c1 | > 512 | > 512 | – | 512 (≈ 1720 µM) | > 512 | > 512 | > 512 | > 512 | – | – | – |
| COc1ccc(OCCCCCC(=O)NNc2nc3ccccc3o2)cc1 | 512 (≈ 1390 µM) | 512 (≈ 1390 µM) | inactive | 512 (≈ 1390 µM) | 256 (≈ 693 µM) | 512 (≈ 1390 µM) | > 512 | > 512 | – | – | – |
| Cc1cccc(C(=O)NNc2nc3ccccc3s2)c1 | 512 (≈ 1810 µM) | 512 (≈ 1810 µM) | 62.8% | 512 (≈ 1810 µM) | > 512 | > 512 | > 512 | > 512 | – | – | – |
| CCCC(=O)N/N=c1\sc2ccccc2n1C | > 512 | > 512 | Active | > 512 | 512 (≈ 2050 µM) | > 512 | > 512 | > 512 | – | – | – |
| CC(C)c1ccc(/C=N/Nc2nc3ccccc3o2)cc1 | > 512 | 512 (≈ 1830 µM) | inactive | 512 (≈ 1830 µM) | 64 (≈ 229 µM) | 256 (≈ 916 µM) | > 512 | > 512 | – | – | – |
| O=[N+]([O-])c1ccccc1/C=N/Nc1nc2ccccc2o1 | > 512 | 256 (≈ 907 µM) | inactive | 512 (≈ 1810 µM) | 128 (≈ 453 µM) | 256 (≈ 907 µM) | > 512 | 256 (≈ 907 µM) | – | – | – |
| O=C(CCCOc1ccc(F)cc1)NNc1nc2ccccc2o1 | 128 (≈ 389 µM) | 256 (≈ 777 µM) | inactive | 512 (≈ 1550 µM) | 256 (≈ 777 µM) | 256 (≈ 777 µM) | > 512 | > 512 | – | – | 30 |
